Experimental data published in PMC5467183 (ACS Medicinal Chemistry Letters, 2017).

Legend:
[1] = MDCK, A to B
[2] = rat hepatocytes
[3] = human hepatocytes
[4] = test system: CD86 surface expression on B cells; assay: cells; settings: Mus musculus, B-cell, read-out: CD86 IC50
[5] = physchem; settings: pH 7.4, Sol. (kinetic solubility)
[6] = Rat pharmacokinetics; type: in vivo
[7] = test system: collagen-induced arthritis (CIA) model in Lewis rat; settings: 0.05 mg/kg daily, days 10–17

Structure (SMILES) | Perm. [1] | RHep (projected hepatic clearance) [2] | HHep (projected hepatic clearance) [3] | further results
CN1CCN(c2ccc(Nc3cc(-c4cc(F)cc(N5CCn6c(cc7c6CCCC7)C5=O)c4CO)cn(C)c3=O)nc2)CC1 [compound 19] | MOD (MOD: 1–10 (10^–6 cm/s)) | < 10.1 | < 6.2 | 
Cn1cc(-c2cc(F)cc(N3CCn4c(cc5c4CCCC5)C3=O)c2CO)cc(Nc2ccc(N3CCN(C4COC4)CC3)cn2)c1=O [compound 20] | HIGH (HIGH: >10 (10^–6 cm/s)) | < 10 | < 6 | 
Cn1cc(-c2cccc(N3CCn4c(cc5c4CCCC5)C3=O)c2CO)cc(Nc2ccc(N3CCN(C4COC4)CC3)cn2)c1=O [compound 18] | MOD (MOD: 1–10 (10^–6 cm/s)) | < 10 | < 6 | 
Cn1cc(-c2cccc(N3CCc4cc(C(C)(C)C)ccc4C3=O)c2CO)cc(Nc2ccncn2)c1=O [compound 9] |  |  |  | IC50 [4]: < 100 nM; solubility kinetic [5]: < 2 µM
Cn1cc(-c2cccc(N3CCc4c(sc5c4CC(C)(C)C5)C3=O)c2CO)cc(Nc2ccncn2)c1=O [compound 7] |  |  |  | Rat CL (total clearance) ([6]; 1 mg/kg i.v.): 16 mL/min/kg; clearance ([6]; in vivo, iv, 1 mg/kg): 16 mL/min/kg; bioavailability ([6]; in vivo, po, 5 mg/kg, pH 3): 37%
C[C@@H]1C[C@H]2[C@@H]3CCC4=CC(=O)C=C[C@]4(C)[C@@]3(F)[C@@H](O)C[C@]2(C)[C@@]1(O)C(=O)CO [dexamethasone] |  |  |  | ankle diameter [7]: significantly (by ANOVA) reduced toward normal
CN1CCN(c2ccc(Nc3cc(-c4cccc(N5CCn6c(cc7c6CCCC7)C5=O)c4CO)cn(C)c3=O)nc2)CC1 [compound 17] | MOD (MOD: 1–10 (10^–6 cm/s)) | 12 | 10 | 
